# Test results from ChEMBL document CHEMBL1157734, “Design and synthesis of novel bis-oximinoalkanoic acids as potent PPAR alpha agonists” (Bioorg Med Chem Lett, 2010).
# Active and inactive are the calls of the source. The calls are words filed in the database; no cut-off is given here.
# Columns and labels:
# [1] = target: T1, Peroxisome proliferator-activated receptor delta (Homo sapiens) (UniProt Q03181); assay: Agonist activity at human full length PPARdelta expressed in human HepG2 cells co-transfected with PPRE3-TK-luc assessed as […] at 1 uM by firefly luciferase assay; type: functional, cell-based
# T1 sequence (whole entry): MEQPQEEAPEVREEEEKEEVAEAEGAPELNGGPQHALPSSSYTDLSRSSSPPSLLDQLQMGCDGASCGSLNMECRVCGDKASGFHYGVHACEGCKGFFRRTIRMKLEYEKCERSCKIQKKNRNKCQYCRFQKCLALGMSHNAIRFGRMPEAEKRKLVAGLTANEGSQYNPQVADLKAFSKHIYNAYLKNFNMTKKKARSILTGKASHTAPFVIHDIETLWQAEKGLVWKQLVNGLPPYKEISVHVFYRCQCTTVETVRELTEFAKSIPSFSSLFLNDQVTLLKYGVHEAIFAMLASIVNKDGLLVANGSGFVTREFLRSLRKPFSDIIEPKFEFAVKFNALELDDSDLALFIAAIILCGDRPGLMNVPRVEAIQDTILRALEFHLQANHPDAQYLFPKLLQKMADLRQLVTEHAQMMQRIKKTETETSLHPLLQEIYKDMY
# Mus musculus = assay: Reduction in serum triglyceride level in Swiss albino mouse at 10 mg/kg/day for 6 days relative to control; type: functional; parameters: scale not given: the % may be the effect or the level left
# [2] = target: T2, Peroxisome proliferator-activated receptor alpha (Homo sapiens) (UniProt Q07869); assay: Agonist activity at human full length PPARalpha expressed in human HepG2 cells co-transfected with PPRE3-TK-luc assessed as […] by firefly luciferase assay relative to WY-14643; type: functional, cell-based; parameters: concentration or dose not given beside the values
# T2 sequence (whole entry): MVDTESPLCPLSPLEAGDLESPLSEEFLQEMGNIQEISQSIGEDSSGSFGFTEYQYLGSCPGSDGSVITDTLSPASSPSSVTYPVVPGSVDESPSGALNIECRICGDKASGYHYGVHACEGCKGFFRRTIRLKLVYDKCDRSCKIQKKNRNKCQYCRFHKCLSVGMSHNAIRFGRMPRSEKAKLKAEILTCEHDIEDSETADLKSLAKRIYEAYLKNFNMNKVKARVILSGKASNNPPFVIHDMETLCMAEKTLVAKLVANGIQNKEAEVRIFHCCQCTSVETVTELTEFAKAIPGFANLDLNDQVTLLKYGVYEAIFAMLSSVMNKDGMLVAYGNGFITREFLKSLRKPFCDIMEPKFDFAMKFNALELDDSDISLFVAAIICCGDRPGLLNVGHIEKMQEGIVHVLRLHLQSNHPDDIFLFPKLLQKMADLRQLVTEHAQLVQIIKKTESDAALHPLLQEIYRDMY
# [3] = target: T3, Peroxisome proliferator-activated receptor alpha (Homo sapiens, UniProt Q07869); assay: Agonist activity at human full length PPARalpha expressed in human HepG2 cells co-transfected with PPRE3-TK-luc assessed as […] by firefly luciferase assay; type: functional, cell-based
# T3 sequence (Q07869 whole entry): T2 sequence (whole entry)
# Homo sapiens = organism: Homo sapiens; assay: Selectivity for human full length PPARalpha over human full length PPARgamma
# [4] = target: T4, Peroxisome proliferator-activated receptor gamma (Homo sapiens, UniProt P37231); assay: Agonist activity at human full length PPARgamma expressed in human HepG2 cells co-transfected with PPRE3-TK-luc assessed as […] by firefly luciferase assay; type: functional, cell-based
# T4 sequence (P37231 whole entry): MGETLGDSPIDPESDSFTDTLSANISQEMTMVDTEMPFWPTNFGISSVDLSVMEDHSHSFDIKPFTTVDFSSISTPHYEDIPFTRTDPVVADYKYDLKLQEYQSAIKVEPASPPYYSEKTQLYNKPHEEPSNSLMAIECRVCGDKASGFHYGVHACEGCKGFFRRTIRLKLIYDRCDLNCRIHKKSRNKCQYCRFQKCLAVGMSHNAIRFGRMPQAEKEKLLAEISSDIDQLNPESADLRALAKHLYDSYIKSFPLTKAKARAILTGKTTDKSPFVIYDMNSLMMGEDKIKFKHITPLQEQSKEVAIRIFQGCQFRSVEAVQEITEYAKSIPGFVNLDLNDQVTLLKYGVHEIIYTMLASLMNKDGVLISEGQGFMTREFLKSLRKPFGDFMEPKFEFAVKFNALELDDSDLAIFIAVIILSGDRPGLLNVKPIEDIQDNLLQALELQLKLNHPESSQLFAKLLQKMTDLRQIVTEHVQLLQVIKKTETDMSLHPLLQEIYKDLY
Activity [1],Activity [2] [%],EC50 [3] [µM],Ratio (Homo sapiens),EC50 ([4]; read-out: EC50) [µM],EC50 ([4]; hepg2),SMILES,Activity (Mus musculus) [%]
inactive,116,0.005,–,–,–,Cc1oc(-c2ccccc2)nc1COc1ccc(CO/N=C(\CCC(=O)O)c2ccccc2)cc1 [IMIGLITAZAR],37
inactive,122,0.4,–,0.7,–,COc1cc(/C(C)=N/OCCCCO/N=C(/CCC(=O)O)c2ccccc2)ccc1F,19
inactive,102,0.01,110,1.1,–,COc1ccc(/C(C)=N/OCCCCO/N=C(/CCC(=O)O)c2ccccc2)cc1,35
inactive,136,0.1,–,0.8,–,COc1ccc(/C(C)=N/OCCCCO/N=C(/CCC(=O)O)c2ccccc2)cc1OC,30
inactive,257,0.005,–,1.6,–,COc1cc(/C(C)=N/OCCCCO/N=C(/CCC(=O)O)c2ccccc2)ccc1C,36
inactive,41,2.4,–,1.9,–,C/C(=N\OCCCCO/N=C(/CCC(=O)O)c1ccccc1)c1ccc(S(C)(=O)=O)cc1,14
inactive,46,2.3,–,–,Not Active,C/C(=N\OCCCCO/N=C(/CCC(=O)O)c1ccccc1)c1ccccc1,–
inactive,79,0.4,–,1.4,–,C/C(=N\OCCCCO/N=C(/CCC(=O)O)c1ccccc1)c1ccc(C(F)(F)F)cc1,0.6
inactive,89,0.002,320,1,–,C/C(=N\OCCCCO/N=C(/CCC(=O)O)c1ccccc1)c1ccc(C)c(C)c1,12
inactive,101,0.05,–,1.4,–,C/C(=N\OCCCCO/N=C(/CCC(=O)O)c1ccccc1)c1ccc(F)cc1,18
inactive,78,0.05,–,2.1,–,C/C(=N\OCCCCO/N=C(/CCC(=O)O)c1ccccc1)c1ccc(C)cc1,13

SMILES,Activity [1],Activity [2] [%],EC50 [3] [µM],Ratio (Homo sapiens),EC50 ([4]; read-out: EC50) [µM],EC50 ([4]; hepg2),Activity (Mus musculus) [%]
C/C(=N\OCCCCO/N=C(/CCC(=O)O)c1ccccc1)c1ccc2ccccc2c1,inactive,61,0.03,6,0.2,–,25
CCCCc1cccc(/C(C)=N/OCCCCO/N=C(/CCC(=O)O)c2ccccc2)c1,inactive,85,0.5,–,0.2,–,31
C/C(=N\OCCCCO/N=C(/CCC(=O)O)c1ccccc1)c1ccc2c(c1)CCCC2,inactive,86,0.003,–,0.2,–,36
C/C(=N\OCCCCO/N=C(/CCC(=O)O)c1ccccc1)c1cccc(-c2ccccc2)c1,inactive,83,0.02,–,0.1,–,23
